Experimental data reported in patent publication US7482339B2, “2-Naphthylimino-1,3-thiazine derivative” (Shionogi and Co., Ltd., priority 2003, dated 2009).
Read-outs that look alike come from different tables or passages of the source.

Tests used:
human CB1R [1] = target: T1, human CB1R (Homo sapiens, UniProt P21554); test: Human CB receptor binding inhibition ([3H]CP55940), CB1R; settings: membranes of CB1R-expressing CHO cells, 0.5 nM [3H]CP55940, 2 hr at 25° C.; read-out: CB receptor binding inhibition Ki CB1
T1 construct: expressed in transfected cells; host or cells: CHO cells (crude membrane fractions)
T1 sequence (P21554 whole entry): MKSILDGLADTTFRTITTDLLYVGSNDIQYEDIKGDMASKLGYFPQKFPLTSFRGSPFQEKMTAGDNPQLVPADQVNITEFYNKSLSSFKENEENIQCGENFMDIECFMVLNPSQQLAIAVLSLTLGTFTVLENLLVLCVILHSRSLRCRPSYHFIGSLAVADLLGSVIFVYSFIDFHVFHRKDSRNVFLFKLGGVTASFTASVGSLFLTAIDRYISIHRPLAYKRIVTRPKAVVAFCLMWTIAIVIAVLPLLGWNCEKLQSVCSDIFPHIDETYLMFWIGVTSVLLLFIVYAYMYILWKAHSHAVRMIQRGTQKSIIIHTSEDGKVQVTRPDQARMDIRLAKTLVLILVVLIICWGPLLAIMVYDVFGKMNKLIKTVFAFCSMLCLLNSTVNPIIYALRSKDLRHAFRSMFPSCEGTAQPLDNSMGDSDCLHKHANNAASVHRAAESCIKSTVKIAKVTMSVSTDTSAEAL
Description: (§1) The crude membrane fractions were then prepared from the CB1R or CB2R-expressing CHO cells. Receptor binding assay was performed by incubating the membranes with each test compound and 38,000 dpm [^3H]CP55940 (at a final concentration of 0.5 nM: PerkinElmer Life & Analytical Sciences) in the assay buffer (50 mM Tris-HCl, […], 3 mM MgCl2, pH 7.4) containing 0.5% bovine serum albumin (BSA) for 2 hr at 25° C. The incubation mixture was filtered through 1% polyethylenimine (PEI)-treated GF/C glass filter and washed with 50 mM Tris-HCl (pH 7.4) containing 0.1% BSA. The radioactivity was then counted with a liquid scintillation counter. Nonspecific binding was determined in the presence of 10 μM WIN55212-2 (a CBR agonist described in the patent U.S. Pat. No. 508,122, Sigma), and the specific binding was calculated by subtracting the nonspecific binding from the total binding. The IC50 value for each test compound was determined as the concentration at which 50 % of the specific binding was inhibited. As a consequence of these studies, the Ki values of each test compound were determined from the IC50 value and the Kd vale of [^3H]CP55940.

human CB2R [2] = target: T2, human CB2R (Homo sapiens, UniProt P34972); test: Human CB receptor binding inhibition ([3H]CP55940), CB2R; settings: membranes of CB2R-expressing CHO cells, 0.5 nM [3H]CP55940, 2 hr at 25° C.; read-out: CB receptor binding inhibition Ki CB2
T2 construct: expressed in transfected cells; host or cells: CHO cells (crude membrane fractions)
T2 sequence (P34972 whole entry): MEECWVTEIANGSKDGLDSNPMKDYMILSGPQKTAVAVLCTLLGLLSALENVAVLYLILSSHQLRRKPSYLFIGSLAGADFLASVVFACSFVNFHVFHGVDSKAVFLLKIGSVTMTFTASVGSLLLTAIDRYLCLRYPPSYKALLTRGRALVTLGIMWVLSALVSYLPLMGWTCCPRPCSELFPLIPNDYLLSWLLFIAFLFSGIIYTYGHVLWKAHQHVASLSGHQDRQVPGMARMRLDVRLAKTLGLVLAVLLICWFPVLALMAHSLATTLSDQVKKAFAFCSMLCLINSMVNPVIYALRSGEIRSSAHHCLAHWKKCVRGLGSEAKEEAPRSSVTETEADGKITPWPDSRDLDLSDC
Description: as §1

human CB1R [3] = target: T1, human CB1R; test: CBR-mediated suppression of forskolin-stimulated cAMP synthesis, CHO cells expressing CB1R; assay type: cell-based; settings: 4 μM forskolin, read-out: Inhibition of cAMP synthesis IC50 CB1
Description: (§2) The CHO cells expressing human CB1R or CB2R were incubated with test compounds for 15 min. After the incubation, 4 μM forskolin (Sigma) was added and the cells were incubated for 20 min. The reaction was stopped by the addition of 1N HCl and the amount of cAMP in the cell supernatant was measured using an Cyclic AMP kit (CIS bio international) according to the manufacture's protocol. The cAMP amount increased by forskolin compared to that in the absence of forskolin was defined as 100%, and the IC50 value of each test compound was determined as the concentration at which 50% of the forskolin-stimulated cAMP synthesis was inhibited.

human CB2R [4] = target: T2, human CB2R; test: CBR-mediated suppression of forskolin-stimulated cAMP synthesis, CHO cells expressing CB2R; assay type: cell-based; settings: 4 μM forskolin, read-out: Inhibition of cAMP synthesis IC50 CB2
Description: as §2

[5] = tested on: formalin-induced hyperalgesia in ICR mice; test: Inhibitory effect against formalin-induced hyperalgesia in ICR mice; assay type: in vivo; settings: Mus musculus, male ICR mice, oral administration 2 h prior to formalin
Description: The inhibitory effects of the compounds of the present invention against formalin-induced hyperalgesia were examined in male ICR mice (5 W). Test compounds were dissolved in sesami oil and applied orally 2 h prior to the subcutaneous formalin injection (2% 20 μL) into the right hind paw. In this experiment, observation period was set to 30 min and divided into two parts, the first 5 minutes immediately after the formalin injection (first phase) and 10 to 30 min minutes after the formalin injection (second phase). The strength for pain sensation was evaluated by the total time for licking and biting behavior. The inhibitory effect of the test compounds on such behavior was evaluated and the ED50 value was calculated.

[6] = tested on: compound 48/80-induced pruritus in ICR strain mice; test: Inhibitory effect on compound 48/80-induced pruritus in ICR strain mice; assay type: in vivo; settings: Mus musculus, po, 0.5 h; female ICR strain mice, orally administered once, scratching counted for 30 min; read-out: anti-pruritic effect ED50
Description: The experiment was carried out by the method of Inagaki et al. (Eur J Pharmacol 1999;367:361-371) with some modifications. Briefly, the back of female ICR strain mice was clipped, and compound 48/80 (3 μg/50 μL/site) was injected intradermally to elicit the response. The number of scratching behavior to the injection site by hind paws, which was observed immediately after the injection, was counted for 30 min. Test compounds, dissolved in sesame oil, were orally administered once. […] the injection of compound 48/80 at pre-determine time when the maximal plasma concentration of the compound was obtained. The inhibitory effect against pruritus was evaluated by comparing the number of scratching in the compound-administered group with that in the vehicle-administered group, and then ED50 value was calculated.

[7] = 10 to 30 min after formalin injection, read-out: Inhibitory effect against formalin-induced hyperalgesia (ED50) Second phase
[8] = first 5 minutes after formalin injection, read-out: Inhibitory effect against formalin-induced hyperalgesia (ED50) First phase

Work on `CSC(=S)N1CC2(CCCCC2)CSC1=Nc1ccc(F)c2ccccc12` [Compound I-140] yielded a Ki (human CB1R [1]) of 59 nM, a Ki (human CB2R [2]) of 0.8 nM and an IC50 (human CB1R [3]) of 27 nM. For the same molecule, the melting point was 139 to 140 °C.
`CSC(=S)N1CC(C(C)C)(C(C)C)CSC1=Nc1ccc(F)c2ccccc12` [Compound I-142] gave a Ki (human CB1R [1]) of 20 nM, a Ki (human CB2R [2]) of 1.2 nM and an IC50 (human CB1R [3]) of 14 nM. For the same molecule, the melting point was 118 to 119 °C.
For `CSC(=O)N1CC(C(C)C)(C(C)C)CSC1=Nc1ccc(F)c2ccccc12` [Compound I-143], the Ki (human CB1R [1]) was 29 nM, the Ki (human CB2R [2]) was 1.4 nM and the IC50 (human CB1R [3]) was 35 nM. For the same molecule, the melting point was 109 to 110 °C.
In the case of `CSC(=O)N1CC(C(C)C)(C(C)C)CSC1=Nc1ccc(Cl)c2ccccc12` [Compound I-114], the IC50 (human CB2R [4]) is reported as 48 nM, the Ki (human CB1R [1]) is reported as 25 nM and the Ki (human CB2R [2]) is reported as 5.9 nM. The IC50 (human CB1R [3]) was 24 nM and the melting point was 111.5 to 112.5 °C.
For `CSC(=S)N1CC2(CCCCC2)CSC1=Nc1cccc2ccccc12` [Compound I-23, 3-[(methylthio)thiocarbonyl]-2-(1-naphthylimino)-5,5-pentamethylene-1,3-thiazine], the IC50 (human CB2R [4]) was 1.7 nM, the Ki (human CB1R [1]) was 29.6 nM and the Ki (human CB2R [2]) was 6 nM. For the same molecule, the ED50 [5, 7] was 1 mg/kg, the ED50 [5, 8] was 1.5 mg/kg and the IC50 (human CB1R [3]) was 10.4 nM. The ED50 [6] was 0.54 mg/kg and the melting point was 118 to 119 °C.
With `CSC(=S)N1CC(C(C)C)(C(C)C)CSC1=Nc1ccc(Cl)c2ccccc12` [Compound I-113] the IC50 (human CB2R [4]) was 1.5 nM, the Ki (human CB1R [1]) was 10 nM and the Ki (human CB2R [2]) was 0.9 nM. The IC50 (human CB1R [3]) was 13 nM and the melting point was 86.5 to 87.5 °C.
In the case of `CSC(=S)N1CC(C(C)C)(C(C)C)CSC1=Nc1cccc2cc(OCC(=O)OC(C)(C)C)ccc12` [Compound I-77], the Ki (human CB1R [1]) is reported as 35 nM and the Ki (human CB2R [2]) is reported as 1.5 nM.
In the case of `CSC(=S)N1CC(C(C)C)(C(C)C)CSC1=Nc1ccc(N(C)C)c2ccccc12` [Compound I-43, 3-[(methylthio)thiocarbonyl]-2-(4-dimethylamino-1-naphthylimino)-5,5-diisopropyl-1,3-thiazine], the Ki (human CB1R [1]) is reported as 21.4 nM and the Ki (human CB2R [2]) is reported as 11.3 nM.
`CSC(=S)N1CC2(CCCCC2)CSC1=Nc1ccc(Cl)c2ccccc12` [Compound I-33] showed a Ki (human CB1R [1]) of 20.7 nM, a Ki (human CB2R [2]) of 1.2 nM and a melting point of 181 to 182 °C.
`CSC(=S)N1CC(C(C)C)(C(C)C)CSC1=Nc1cccc2ccccc12` [Compound I-27] showed a Ki (human CB1R [1]) of 13 nM, a Ki (human CB2R [2]) of 0.3 nM and an IC50 (human CB1R [3]) of 8.1 nM. For the same molecule, the melting point was 121 to 122 °C.
In the case of `CSC(=O)N1CC(C(C)C)(C(C)C)CSC1=Nc1cccc2ccccc12` [Compound I-29], the Ki (human CB1R [1]) is reported as 6 nM, the Ki (human CB2R [2]) is reported as 1.7 nM and the ED50 [5, 7] is reported as 3.5 mg/kg. It also gave an ED50 [5, 8] of 3.6 mg/kg, an IC50 (human CB1R [3]) of 17.5 nM and a melting point of 98 to 99 °C.
For `C=CCC1(CC=C)CSC(=Nc2cccc3ccccc23)N(C(=S)SC)C1` [Compound I-28], the Ki (human CB1R [1]) was 31.4 nM and the Ki (human CB2R [2]) was 4.8 nM.
For `CCCC1(CCC)CSC(=Nc2cccc3ccccc23)N(C(=O)SC)C1` [Compound I-25], the Ki (human CB1R [1]) was 42.5 nM, the Ki (human CB2R [2]) was 1 nM and the melting point was 108.5 to 109.5 °C.
`CSC(=S)N1CC2(CCCCC2)CSC1=Nc1ccc(C#N)c2ccccc12` [Compound I-144] showed a Ki (human CB1R [1]) of 54 nM, a Ki (human CB2R [2]) of 1 nM and an IC50 (human CB1R [3]) of 52 nM. It also gave a melting point of 164 to 165 °C.
For `CCCC1(CCC)CSC(=Nc2cccc3ccccc23)N(C(=S)SC)C1` [Compound I-22], the Ki (human CB1R [1]) was 20 nM, the Ki (human CB2R [2]) was 1.5 nM and the melting point was 139 to 140.5 °C.
